Data taken from article PMC7472781, “Inherited and Acquired Determinants of Hepatic CYP3A Activity in Humans” (Frontiers in Genetics, 2020).
Marks after values point to notes of the source that are not given here.

Columns and labels:
CYP3A [1] = assay: Within- and between-subject variance and genetic component (Kalow) of the 4 CYP3A biomarkers, three occasions; details: for Genetic component: from intra- and inter-individual variation, independent of twin status, AUC, plasma concentration or 24-h urine Ae
Description: (§1) Predefined primary endpoint was midazolam AUC. All concentrations and pharmacokinetic parameters were determined on three independent occasions to compare intra- versus interindividual variation. […] In structural equation modeling of heritability and in the other multifactorial analyses the individual means from the measurements or parameters obtained on the three occasions were used. Using structural equation analysis, variation was separated into additive genetic (A), common environmental (C), and unique environmental (E) effects. The heritability is the proportion of the variance resulting from the genetic effect (A). In order to investigate the genetic, common environmental, and unique environmental effects of the different traits taken into account, the possible correlation between traits were fitted in multivariate ACE, AE, and CE biometrical models using the mcglm package for multivariate regression analysis in R. As an exploratory analysis, we computed the correlation between MZ and DZ twins based on an unstructured (equal mean and variance for MZ and DZ twins) model. In all models, the mean structure for each trait was specified as a linear function of the covariates age and sex.

CYP3A [2] = assay: Twin correlations and structural equation modeling (ACE, AE, CE) of heritability of the CYP3A biomarkers
Description: as §1

CYP3A [3] = assay: Multifactorial analysis of genetic and environmental effects on the CYP3A probe drugs and biomarkers; details: in vivo
Description: DNA was isolated from whole venous blood by automated solid phase extraction with the EZ1^TM DNA Blood 350 μl Kit using the Bio-robot EZ1^TM (both Qiagen, Hilden, Germany). The CYP3A4^∗1b and ^∗22 alleles as well as the CYP3A5^∗1/^∗3 polymorphism were genotyped by DNA sequencing using fluorescence-labeled dideoxynucleotides and detection via Gene Mapper v3.7 Software® (Applied Biosystems®, Foster City, United States). Zygosity was assessed by analyzing variants in 23 polymorphic genes. Monozygosity was concluded when there were no differences regarding the polymorphisms in both siblings of one twin pair.
as §1

CYP3A [4] = details: in vivo
Description: Cholesterol and 4ß-OH cholesterol were measured in the baseline blood samples before drug administration. All samples were centrifuged for 10 min (4000 rpm) at 4°C and the plasma was stored at −20°C.
Calibration samples for cholesterol were prepared in isooctane with 10% 2-propanol in the concentration range from 1 to 30 μg. Calibration samples for 4ß-hydroxycholesterol were prepared in isooctane with 0.8% 2-propanol from 5 to 100 ng. […] Calibration samples were worked up as the samples, and analyzed together with the unknown samples. […] The concentration in unknown samples was obtained from the regression line.

CYP3A [5] = assay: clinical; details: for AUC: 0.2 mg midazolam i.v., zero to infinity; for AUC420: dose to 420 min
Description: Midazolam was administered as a 2 min intravenous infusion with a total dose of 0.2 mg. The phenotyping test with midazolam was performed on three different occasions with a time interval of at least 1 week and maximally 3 months.
Pharmacokinetic parameters were estimated by non-compartmental analyses using the WinNonlin software (Pharsight Corporation, Mountain View, United States). The AUC from zero to infinity (AUC), was calculated by the linear/log trapezoidal rule and using the terminal elimination rate constant (lambda z). […] Total plasma clearance (Cl) after administration of midazolam was calculated as the ratio dose over AUC. Time (tmax) and amount of maximum plasma concentration (Cmax) were given as measured and the terminal half-life (t1/2) was calculated as t1/2 = ln(2)/lambda z.

[6] = ref Heizmann et al., 1983; cited from earlier work

C[C@]12CCC(=O)C=C1[C@@H](O)C[C@@H]1[C@@H]2[C@@H](O)C[C@@]2(C)[C@H]1CC[C@]2(O)C(=O)CO [6ß-OH-cortisol, 6-ß-hydroxycortisol]
Genetic component (CYP3A [1]): 0.457 | Variance between subjects (Varb) of Ae (24-h-urine) (CYP3A [1]; human, in vivo): 8141 μg/24 h | Variance within subjects (Varw) of Ae (24-h-urine) (CYP3A [1]; three occasions): 4247 μg/24 h | Variation due to additive genetic (inherited) effects (CYP3A [2]; in vivo): 31% | rdz (correlation between DZ twins) (CYP3A [2]; in vivo): 0.50 (0.13)* | rmz (correlation between MZ twins) (CYP3A [2]; in vivo): 0.68 (0.06)* | Coefficient, CYP3A4*22 (CYP3A [3]): −127.40 | Coefficient, CYP3A5*3 (CYP3A [3]): 0.70 | Coefficient, age (CYP3A [3]): 0.94 | Coefficient, lean body weight (CYP3A [3]): −1.35 | Coefficient, sex (CYP3A [3]): −9.28 | Coefficient, smoking status (CYP3A [3]): −8.66 | Coefficient, oral contraceptives (CYP3A [3]): 3.37 | Ae (24-h-urine), mean (CYP3A [4]): 222 μg/24 h

Cc1ncc2n1-c1ccc(Cl)cc1C(c1ccccc1F)=NC2 [Midazolam, midazolam]
Median AUC (CYP3A [5]; *1/*1 and *1/*1B genotypes (n = 110)): 439.1 μg ∗ min/L | AUC (CYP3A [5]; DZ twins, value (range)): 431.0 (287.8 – 640.7) μg * min/L | AUC420 (CYP3A [5]; DZ twins, value (range)): 354.8 (240.0 – 542.9) μg * min/L | tmax (CYP3A [5]; DZ twins, value (range)): 10 (10 – 19) min | AUC (CYP3A [5]; MZ twins, value (range)): 450.3 (290.3 – 897.4) μg * min/L | AUC420 (CYP3A [5]; MZ twins, value (range)): 378.6 (255.8 – 636.4) μg * min/L | AUC, inter-individual range (CYP3A [5]; all subjects): 288 – 897.4 μg∗min/L | Inter-individual variation in AUC (CYP3A [5]; all subjects): 3.1 fold | AUC, mean (CYP3A [5]; all subjects, three occasions): 464.0 µg·min/L | Median AUC (CYP3A [5]; daily fruit consumption): 425.4 μg ∗ min/L | Median AUC (CYP3A [5]; heterozygous carriers of CYP3A4*22 (n = 4)): 595.1 μg ∗ min/L | tmax (CYP3A [5]; human, plasma, intravenous, 0.2 mg): 10 min | clearance (CYP3A [5]; human, plasma, intravenous, 0.2 mg, Cl, DZ twins, total plasma clearance, value (range)): 480 mL/min | clearance (CYP3A [5]; human, plasma, intravenous, 0.2 mg, Cl, DZ twins, value (range)): 6.74 mL/min/kg | clearance (CYP3A [5]; human, plasma, intravenous, 0.2 mg, Cl, MZ twins, total plasma clearance, value (range)): 450 mL/min | clearance (CYP3A [5]; human, plasma, intravenous, 0.2 mg, Cl, MZ twins, value (range)): 6.8 mL/min/kg | clearance (CYP3A [5]; human, plasma, intravenous, 0.2 mg, Clearance, summary in discussion (Table 2)): ~500 mL/min | Cmax (CYP3A [5]; human, plasma, intravenous, 0.2 mg, DZ twins, value (range)): 3.76 ng/mL | Cmax (CYP3A [5]; human, plasma, intravenous, 0.2 mg, MZ twins, value (range)): 4.11 ng/mL | half-life (CYP3A [5]; human, plasma, intravenous, 0.2 mg, Elimination half-life, summary in discussion (Table 2)): ~120 min | half-life (CYP3A [5]; human, plasma, intravenous, 0.2 mg, t1/2, DZ twins, terminal half-life, value (range)): 185 min | half-life (CYP3A [5]; human, plasma, intravenous, 0.2 mg, t1/2, MZ twins, terminal half-life, value (range)): 163 min | AUC higher in male than in female subjects (CYP3A [5]; median): 8% | Variation of plasma concentrations between subjects (CYP3A [5]; one study day, all subjects): about 10 fold | Median AUC (CYP3A [5]; rare fruit consumption): 519.4 μg ∗ min/L | Intra-individual (between-days) mean coefficient of variation (CYP3A [5]; three occasions): 11.3% | Median AUC (CYP3A [5]; thrice weekly fruit consumption): 446.9 μg ∗ min/L | Median AUC (CYP3A [5]; very rare fruit consumption): 558.9 μg ∗ min/L | Genetic component (CYP3A [1]): 0.612 | Variation that may be due to genetic factors (from genetic component) (CYP3A [1]; human, in vivo): up to 61% | C^2 (common environmental effect) (CYP3A [2]; ACE model): 0.48 (0.24)* | H^2 (heritability) (CYP3A [2]; ACE model): 0.15 (0.25) | Variation attributed to common environmental factors (CYP3A [2]; ACE model): 48% | Variation due to additive genetic (inherited) effects (CYP3A [2]; ACE model): 15% | H^2 (heritability) (CYP3A [2]; AE model): 0.63 (0.06)* | C^2 (common environmental effect) (CYP3A [2]; CE model): 0.60 (0.06)* | rdz (correlation between DZ twins) (CYP3A [2]; unstructured model): 0.52 (0.13)* | rmz (correlation between MZ twins) (CYP3A [2]; unstructured model): 0.66 (0.06)* | Coefficient, CYP3A4*22 (CYP3A [3]; human): 169.57 | Coefficient, CYP3A5*3 (CYP3A [3]; human): 32.33 | Coefficient, age (CYP3A [3]; human): −0.60 | Coefficient, sex (CYP3A [3]; human): 74.51 | Coefficient, lean body weight (CYP3A [3]; human, 0.2 mg): −7.29 | Coefficient, smoking status (CYP3A [3]; human, 0.2 mg): −21.79 | Coefficient, oral contraceptives (CYP3A [3]; human, 0.2 mg): −63.18 | Fraction of midazolam eliminated as 1-OH-midazolam [6]: Approximately 75%
